Patent US20110237679A1, “NOVEL ANTIVIRAL COMPOUNDS, COMPOSITIONS, AND METHODS OF USE” (CYTOKINE PHARMASCIENCES, INC., priority 2008, published 2011)

Experiment: in vitro activity comparison (FIG. 1)
Type: cell-based
Settings: relative to ITI-367

COc1ccccc1C(=Nc1cccc(C(F)(F)F)c1)NO [CPSI-00220, N-hydroxy-2-methoxy-N′-(3-trifluoromethyl-phenyl)-benzamidine]
effectiveness in vitro compared with ITI-367: equally (and possibly more) as effective as ITI-367
